Patent US20020107195A1, “Method for inducing chemotaxis in endothelial cells by administering stromal cell derived factor-1alpha” (SmithKline Beecham Corporation, priority 1998, published 2002)
Entries after “also recorded” stand apart in the source; their conditions may differ. *1 amine or outer side, *2 acyl side, *3 side chain or, on linkers, in order; H or OH if unused. Where a SMILES comes first, the peptide text is derived from it. Bridges are numbered along the chain shown (N, C = ends). Roman numbers before positions name the chains, in order. [ ]: non-standard residue; d: D form. Actinocin(9to1) = Cc1c2oc3c(C)ccc(C(=O)[*:1])c3nc-2c(C(=O)[*:2])c(N)c1=O; NMeV = CN[C@H](C(=O)O)C(C)C; Sar = CNCC(=O)O

B1: PF-4: chemokine from R&D Systems (protein, UniProt P02776 32-101, looked up)
Platelet factor 4: EAEEDGDLQCLCVKTTSQVRPRHITSLEVIKAGPHCPTAQLIATLKNGRKICLDLQAPLYKKIIKKLLES
B2: RANTES: chemokine from R&D Systems (protein, UniProt P13501 24-91, looked up)
C-C motif chemokine 5: SPYSSDTTPCCFAYIARPLPRAHIKEYFYTSGKCSNPAVVFVTRKNRQVCANPEKKWVREYINSLEMS
B3: MIP-1α: chemokine from R&D Systems (protein, UniProt P10147 24-92, looked up)
C-C motif chemokine 3: SLAADTPTACCFSYTSRQIPQNFIADYFETSSQCSKPGVIFLTKRSRQVCADPSEEWVQKYVSDLELSA

Key:
Format in all cases: cell-based, human
CXCR4 mRNA = assay: Northern blot analysis of steady state CXCR4 mRNA levels in HUVEC treated with mediators; conditions: for CXCR4 mRNA levels (normalized against GAPDH): HUVEC, after 24 hours of treatment
Procedure: Total RNA (10 μg/lane) was fractionated on 1% agarose-formaldehyde gels, transferred to a nylon membrane (Amersham Corp., Piscataway, N.J.) and covalently linked with a UV crosslinker (Stratagene Inc., La Jolla, Calif.). For Northern analysis, 515-base pair size cDNA probes of CXCR1, CXCR2, CXCR3, CXCR4, CCR1, CCR2 and CCR3, were used. The GAPDH gene probe (Clontech, Palo Alto, Calif.) was used to normalize RNA sample differences in each lane. The probes were labeled with [a-^32P] dCTP using a random-prime labeling kit (Promega Corp., Madison, Wis.), and hybridized overnight at 42° C. in 6X SSC buffer (1X SSC=150 mM NaCL, 15 mM Na Citrate), .1% sodium dodecyl sulfate, 5X Denhardt's solution, 50% formamide, and 100 μg/ml denatured salmon sperm DNA. Membranes were washed with a final stringency of 0.2X SSC at 60° C., and analyzed with a phosphorimager (Molecular Dynamics, Inc., Sunnyvale, Calif.) after exposure at room temperature for 3-5 days. Densitometry was used for quantitative analysis.
CXCR4 transcripts are well expressed in many non-hematopoietic vascular tissues like heart, brain, lung and colon. Federsppiel, et al. Genomics 16: 707-712 (1993). However, at the cellular level, this expression was selective for EC, as indicated by the failure of total RNA from human pulmonary artery smooth muscle cells (HPASMC) to hybridize with the CXCR4 cDNA probe. To understand the regulation of CXCR4 in EC during inflammation, we treated the HUVEC with various mediators and measured its steady state mRNA levels after normalization against the GAPDH cDNA probe.
In order to understand the kinetics of inflammation mediated transcriptional regulation of CXCR4, actinomycin D was used to determine the half-life of CXCR4 mRNA. […] Many cytokines and cytokine receptors, including CXCR4, have A-U rich elements in their untranslated regions that serve as targeting motifs for transcript degradation by specific RNAses. Shaw, et al., Cell 46: 659-667 (1986). In addition to its action as a transcriptional inhibitor, actinomycin D also has the unique and immediate effect of imparting stability to existing transcripts of mRNA undergoing rapid turnover.

HUVEC [1] = assay: Measurement of intracellular calcium [Ca2+]i in EC (fura-2); conditions: for elevation of [Ca+2]i (mobilization of intracellular Ca2+): HUVEC / EC
Procedure: For measurements of intracellular calcium [Ca^2+]i, EC were loaded with 2 μM fura-2/AM (Molecular Probes, Eugene, OR), rinsed with 1 mM EDTA in Dulbecco's PBS, and resuspended into Kreb's Ringer's Henseleit (KRH) buffer, pH 7.4, containing 0.1% gelatin. Cells (1x 10^6/ml) were stored on ice and diluted for use 1:1 with fresh KRH buffer at 37° C. Fluorescence of fura-2 in cells was measured with a University of Pennsylvania Biomedical Instruments Group dual channel fluorometer. Data was captured as voltage recordings with the aid of a PC and analyzed by Igor version 1.28 software (WaveMetrics, Lake Oswego, Oreg.). Chemokines were added from concentrated stocks in water. To establish the integrity of EC, we also measured [Ca^2+]i stimulated by thrombin.
To determine whether the human EC express a functional CXCR4 receptor, our subsequent studies used SDF-1α along with several other chemokines to assess their ability to induce changes in intracellular levels of Ca^+2 and cause migration. […] In contrast, other chemokines like γ-IP10, IL-8, PF-4, MIP-1α, MCP-1, eotaxin and RANTES had no effect on EC.

HUVEC [2] = assay: HUVEC migration (chemotaxis) assay, Transwell; conditions: for effect on EC chemotaxis: HUVEC
Procedure: HUVEC migration assay was performed using 5×10^5 cells/well (in CS-C medium) in the top chamber of a 6.5 mm diameter, 8-μM pore polycarbonate Transwell culture insert (Costar, Cambridge, Mass.) as reported previously (36). Incubation was carried out at 37° C. in 5% CO2 for 20 hrs. After incubation, migrated cells in the lower chamber were counted with a ZM Coulter counter (Coulter Diagnostics, Hialeah, Fla.). Percent migration was calculated based on the total initial input cells per well.
The Applicant next studied the chemotactic response of EC to SDF-1α. SDF-1α induced a pronounced migration of ˜40% of input EC in a concentration-related manner with an EC50 of 10-20 nM. It is intriguing to observe the high percentage of EC that migrated in response to SDF-1α, even though EC have limited migratory capability in comparison with neutrophils and monocytes. In contrast with other EC chemo-attractants like vitronectin, the chemotactic response to SDF-1α was kinetically robust, and a majority of the migrated cells entered the lower chamber without adhering to the Transwell filter. In these experiments, other chemokines like γ-IP10, IL-8, MIP-1α, MCP-1, eotaxin and RANTES had no effect on EC chemotaxis. Taken together, these observations have obvious biological significance, in that they indicate that SDF-1α plays a role in re-endothelialization after injury, an event that requires the directed migration of EC.

Molecule	CXCR4 mRNA levels (normalized against GAPDH) (CXCR4 mRNA)	elevation of [Ca+2]i (mobilization of intracellular Ca2+) (HUVEC [1])	effect on EC chemotaxis (HUVEC [2])	other results
Cc1c2oc3c(C)ccc(C(=O)N[C@@H]4C(=O)N[C@H](C(C)C)C(=O)N5CCC[C@H]5C(=O)N(C)CC(=O)N(C)[C@@H](C(C)C)C(=O)O[C@@H]4C)c3nc-2c(C(=O)N[C@@H]2C(=O)N[C@H](C(C)C)C(=O)N3CCC[C@H]3C(=O)N(C)CC(=O)N(C)[C@@H](C(C)C)C(=O)O[C@@H]2C)c(N)c1=O [actinomycin D] (I: T[dV]P[Sar][NMeV] / II: T[dV]P[Sar][NMeV]; ester I:1-I:C, II:1-II:C; linker I:N-II:N via Actinocin(9to1))	almost complete abrogation	–	–	steady state levels of CXCR4 mRNA after short term exposure (CXCR4 mRNA; EC cultures, exposure of only 15-30 minutes): sharply increasing
IFN-γ: recombinant human IFN-γ purchased from Genzyme	decrease	–	–	–
IL-1β: recombinant human IL-1β purchased from Genzyme	significant induction	–	–	–
IL-8: chemokine from R&D Systems	–	no effect	no effect	–
MCP-1: chemokine from R&D Systems	–	no effect	no effect	–
SDF-1α: stromal cell derived factor-1α, polypeptide of SEQ ID NO:4, CXC chemokine ligand of CXCR4; obtained from Gryphon Sciences	–	rapid, though variable elevation; also recorded: induced a rapid mobilization	–	concentration of maximal [Ca+2]i response (HUVEC [1]; HUVEC): 100 nM; migration, percent of input EC (HUVEC [2]; 20 hrs incubation, Transwell): ~40%; EC50 (HUVEC [2]; concentration-related migration of EC): 10 to 20 nM
TGF-β	no effect	–	–	–
TNF-α	to a lesser extent, TNF-α, caused a decrease	–	–	–
eotaxin: chemokine from R&D Systems	–	no effect	no effect	–
γ-IP10: chemokine from R&D Systems	no effect	no effect	no effect	–
B1	–	no effect	–	–
B2	–	no effect	no effect	–
B3	–	no effect	no effect	–
